Measurements published in US7161032B2, “Sulfonamide derivatives, insecticides for agricultural and horticultural use, and usage thereof” (Nihon Nohyaku Co., Ltd., priority 2002, dated 2007).

Tests used:
Assay type in all cases: in vivo
[1] = tested on: Common Cutworm (Spodoptera litura); assay: Insecticidal effect on common cutworm (Test Example 2): cabbage leaf piece immersed in 50 ppm liquid chemical; conditions: common cutworm (Spodoptera litura) second-instar larvae, 8 days after inoculation, 25° C.
Description: A piece of cabbage leaf (cultivar: Shikidori) was immersed for about 30 seconds in a liquid chemical prepared by diluting a preparation containing each compound listed in Table 1 or 2 as an active ingredient to adjust the concentration to 50 ppm. After air-dryness, it was placed in a plastic Petri dish with a diameter of 9 cm and inoculated with second-instar larvae of common cutworm, after which the dish was closed and then allowed to stand in a room thermostated at 25° C. Eight days after the inoculation, the dead and alive were counted. The mortality was calculated according to the following equation and the insecticidal effect was judged according to the criterion shown in Test Example 1. The test was carried out with triplicate groups of 10 insects. [formula]

[2] = tested on: Diamond Back Moth (Plutella xylostella); assay: Insecticidal effect on diamond back moth (Test Example 1): egg-bearing Chinese cabbage seedling immersed in 50 ppm liquid chemical
Description: Adult diamond back moths were released and allowed to oviposit on a Chinese cabbage seedling. Two days after the release, the seedling having the eggs deposited thereon was immersed for about 30 seconds in a liquid chemical prepared by diluting a preparation containing each compound listed in Table 1 or 2 as an active ingredient to adjust the concentration to 50 ppm. After air-dryness, it was allowed to stand in a room thermostated at 25° C. Six days after the immersion, the hatched insects were counted. The mortality was calculated according to the following equation and the insecticidal effect was judged according to the criterion shown below. The test was carried out with triplicate groups of 10 insects. [formula]

[3] = tested on: Smaller Tea Tortrix (Adoxophyes sp.); assay: Insecticidal effect on smaller tea tortrix (Test Example 3): tea leaves immersed in 50 ppm liquid chemical; conditions: smaller tea tortrix (Adoxophyes sp.) larvae, 8 days after inoculation, 25° C., humidity 70%
Description: Tea leaves were immersed for about 30 seconds in a liquid chemical prepared by diluting a preparation containing each compound listed in Table 1 or 2 as an active ingredient to adjust the concentration to 50 ppm. After air-dryness, the tea leaves were placed in a plastic Petri dish with a diameter of 9 cm and inoculated with larvae of smaller tea tortrix, after which the dish was allowed to stand in a room thermostated at 25° C. and having a humidity of 70%. Eight days after the inoculation, the dead and alive were counted and the insecticidal effect was judged according to the criterion shown in Test Example 1. The test was carried out with triplicate groups of 10 insects.

Compound | Insecticidal effect (mortality grade), Test Example 2 [1] | Insecticidal effect (mortality grade), Test Example 1 [2] | Insecticidal effect (mortality grade), Test Example 3 [3]
Cc1cc(C(F)(C(F)(F)F)C(F)(F)F)ccc1NC(=O)c1cccc(I)c1C(=O)NC(C)CS(N)(=O)=O (stereo not shown) [1-1] | A (Mortality 100%) | A (Mortality 100%) | A (Mortality 100%)
CNS(=O)(=O)CC(C)NC(=O)c1c(I)cccc1C(=O)Nc1ccc(C(F)(C(F)(F)F)C(F)(F)F)cc1C (stereo not shown) [1-2] | A (Mortality 100%) | A (Mortality 100%) | A (Mortality 100%)
Cc1cc(C(F)(C(F)(F)F)C(F)(F)F)ccc1NC(=O)c1cccc(I)c1C(=O)NC(C)CS(=O)(=O)N(C)C (stereo not shown) [1-3] | A (Mortality 100%) | A (Mortality 100%) | A (Mortality 100%)
CCNS(=O)(=O)CC(C)NC(=O)c1c(I)cccc1C(=O)Nc1ccc(C(F)(C(F)(F)F)C(F)(F)F)cc1C (stereo not shown) [1-4, N^2-(2-ethylsulfamoyl-1-methylethyl)-3-iodo-N^1-{2-methyl-4-[1,2,2,2-tetrafluoro-1-(trifluoromethyl)ethyl]phenyl}phthalamide] | A (Mortality 100%) | A (Mortality 100%) | A (Mortality 100%)
CCN(CC)S(=O)(=O)CC(C)NC(=O)c1c(I)cccc1C(=O)Nc1ccc(C(F)(C(F)(F)F)C(F)(F)F)cc1C (stereo not shown) [1-6] | A (Mortality 100%) | A (Mortality 100%) | A (Mortality 100%)
CCCNS(=O)(=O)CC(C)NC(=O)c1c(I)cccc1C(=O)Nc1ccc(C(F)(C(F)(F)F)C(F)(F)F)cc1C (stereo not shown) [1-7] | A (Mortality 100%) | A (Mortality 100%) | A (Mortality 100%)
Cc1cc(C(F)(C(F)(F)F)C(F)(F)F)ccc1NC(=O)c1cccc(I)c1C(=O)NC(C)CS(=O)(=O)NC(C)C (stereo not shown) [1-8] | A (Mortality 100%) | A (Mortality 100%) | A (Mortality 100%)
CCCCNS(=O)(=O)CC(C)NC(=O)c1c(I)cccc1C(=O)Nc1ccc(C(F)(C(F)(F)F)C(F)(F)F)cc1C (stereo not shown) [1-12] | A (Mortality 100%) | A (Mortality 100%) | A (Mortality 100%)
Cc1cc(C(F)(C(F)(F)F)C(F)(F)F)ccc1NC(=O)c1cccc(I)c1C(=O)NC(C)CS(=O)(=O)NC(C)(C)C (stereo not shown) [1-14] | A (Mortality 100%) | A (Mortality 100%) | A (Mortality 100%)
C=CCNS(=O)(=O)CC(C)NC(=O)c1c(I)cccc1C(=O)Nc1ccc(C(F)(C(F)(F)F)C(F)(F)F)cc1C (stereo not shown) [1-20] | A (Mortality 100%) | A (Mortality 100%) | A (Mortality 100%)
C#CCNS(=O)(=O)CC(C)NC(=O)c1c(I)cccc1C(=O)Nc1ccc(C(F)(C(F)(F)F)C(F)(F)F)cc1C (stereo not shown) [1-21] | A (Mortality 100%) | A (Mortality 100%) | A (Mortality 100%)
Cc1cc(C(F)(C(F)(F)F)C(F)(F)F)ccc1NC(=O)c1cccc(I)c1C(=O)NC(C)CS(=O)(=O)NCc1ccccc1 (stereo not shown) [1-22] | A (Mortality 100%) | A (Mortality 100%) | A (Mortality 100%)
Cc1cc(C(F)(C(F)(F)F)C(F)(F)F)ccc1NC(=O)c1cccc(I)c1C(=O)NC(C)CS(=O)(=O)NCc1ccccc1F (stereo not shown) [1-23] | A (Mortality 100%) | A (Mortality 100%) | A (Mortality 100%)
Cc1cc(C(F)(C(F)(F)F)C(F)(F)F)ccc1NC(=O)c1cccc(I)c1C(=O)NC(C)CS(=O)(=O)NCc1ccccc1Cl (stereo not shown) [1-24] | A (Mortality 100%) | A (Mortality 100%) | A (Mortality 100%)
Cc1cc(C(F)(C(F)(F)F)C(F)(F)F)ccc1NC(=O)c1cccc(I)c1C(=O)NC(C)CS(=O)(=O)NCc1ccccc1Br (stereo not shown) [1-25] | A (Mortality 100%) | A (Mortality 100%) | A (Mortality 100%)
COc1ccccc1CNS(=O)(=O)CC(C)NC(=O)c1c(I)cccc1C(=O)Nc1ccc(C(F)(C(F)(F)F)C(F)(F)F)cc1C (stereo not shown) [1-27] | A (Mortality 100%) | A (Mortality 100%) | A (Mortality 100%)
Cc1cc(C(F)(C(F)(F)F)C(F)(F)F)ccc1NC(=O)c1cccc(I)c1C(=O)NC(C)CS(=O)(=O)NCc1ccccc1[N+](=O)[O-] (stereo not shown) [1-28] | A (Mortality 100%) | A (Mortality 100%) | A (Mortality 100%)
COc1cccc(CNS(=O)(=O)CC(C)NC(=O)c2c(I)cccc2C(=O)Nc2ccc(C(F)(C(F)(F)F)C(F)(F)F)cc2C)c1 (stereo not shown) [1-29] | A (Mortality 100%) | A (Mortality 100%) | A (Mortality 100%)
Cc1cc(C(F)(C(F)(F)F)C(F)(F)F)ccc1NC(=O)c1cccc(I)c1C(=O)NC(C)CS(=O)(=O)NCc1cccc([N+](=O)[O-])c1 (stereo not shown) [1-30] | A (Mortality 100%) | A (Mortality 100%) | A (Mortality 100%)
Cc1cc(C(F)(C(F)(F)F)C(F)(F)F)ccc1NC(=O)c1cccc(I)c1C(=O)NC(C)CS(=O)(=O)NCc1cccc(C#N)c1 (stereo not shown) [1-31] | A (Mortality 100%) | A (Mortality 100%) | A (Mortality 100%)
COc1cccc(OC)c1CNS(=O)(=O)CC(C)NC(=O)c1c(I)cccc1C(=O)Nc1ccc(C(F)(C(F)(F)F)C(F)(F)F)cc1C (stereo not shown) [1-32] | A (Mortality 100%) | A (Mortality 100%) | A (Mortality 100%)
COc1ccc(CNS(=O)(=O)CC(C)NC(=O)c2c(I)cccc2C(=O)Nc2ccc(C(F)(C(F)(F)F)C(F)(F)F)cc2C)cc1 (stereo not shown) [1-35] | A (Mortality 100%) | A (Mortality 100%) | A (Mortality 100%)
Cc1cc(C(F)(C(F)(F)F)C(F)(F)F)ccc1NC(=O)c1cccc(I)c1C(=O)NC(C)CS(=O)(=O)NCc1ccc([N+](=O)[O-])cc1 (stereo not shown) [1-36] | A (Mortality 100%) | A (Mortality 100%) | A (Mortality 100%)
Cc1cc(C(F)(C(F)(F)F)C(F)(F)F)ccc1NC(=O)c1cccc(I)c1C(=O)NC(C)CS(=O)(=O)NCc1ccc(C#N)cc1 (stereo not shown) [1-37] | A (Mortality 100%) | A (Mortality 100%) | A (Mortality 100%)
CCNS(=O)(=O)CC(C)NC(=O)c1c(I)cccc1C(=O)Nc1ccc(C(F)(C(F)(F)F)C(F)(F)F)cc1C (stereo not shown) [1-142] |  |  | A (Mortality 100%)
